Reference: patent publication US20090270352A1, “Tenofovir Disoproxil Hemi-Fumaric Acid Co-Crystal” (ULTIMORPHIX TECHNOLOGIES B.V., priority 2007, published 2009)
Structures can show the parent of a compound that is named as a salt.

Assay: Dynamic Vapour Sorption (DVS) moisture sorption isotherm
Format: physicochemical
Settings: for total uptake of water vapours: DVS, 25° C., relative humidity 0% to 95% in steps of 5%, 1 h per step, sorption-desorption cycle
Procedure: Moisture sorption isotherms were measured using a DVS-1 system of Surface Measurement Systems (London, UK). Differences in moisture uptake of various forms of a solid material indicate differences in the relative stabilities of the various solid forms for increasing relative humidity. The experiment was carried out at a constant temperature of 25° C.
A sample of about 11.5 mg of form TDFA 2:1 was spread in the DVS pan. The sample was dried at 0% RH for 7 h. Subsequently the relative humidity of the chamber was increased in steps of 5% units from 0% to 95% in order to monitor the sorption of water vapours. The samples remained in each of the steps for 1 h. Following, desorption was monitored by decreasing the relative humidity to 0% in steps of 5% units and remaining at each step for 1 h. The total uptake of water vapours was about 0.8%, which is line with the industry standard for hygroscopicity. In a similar DVS experiment using the starting material as purchased, the total vapour intake was about 4%, which is undesirable in formulation and requires additional measures.

| Compound | total uptake of water vapours | changes in the structure by XRPD at the end of the DVS experiment (solid material measured by XRPD after the DVS sorption-desorption cycle (FIG. 4)) |
| --- | --- | --- |
| CC(C)OC(=O)OCOP(=O)(CO[C@H](C)Cn1cnc2c(N)ncnc21)OCOC(=O)OC(C)C.CC(C)OC(=O)OCOP(=O)(CO[C@H](C)Cn1cnc2c(N)ncnc21)OCOC(=O)OC(C)C.O=C(O)/C=C/C(=O)O [TDFA 2:1, co-crystal of tenofovir disoproxil and fumaric acid in a 2:1 molar ratio] | about 0.8% | no any changes in the structure |
| CC(C)OC(=O)OCOP(=O)(CO[C@H](C)Cn1cnc2c(N)ncnc21)OCOC(=O)OC(C)C [starting material, 9-[(R)-2-[[bis[[(isopropoxycarbonyl)oxy]methoxy]phosphinyl]-methoxy]propyl] adenine fumarate (1:1), reference compound] | about 4% | – |
